Experimental data taken from patent US6187906A, “Methods to improve neural outcome” (Aukland Uniservices Limited, priority 1998, dated 2001).

Tested on: dopamine neurons in the pars compacta region of the substantia nigra
Assay: 6-OHDA lesion, count of TH immunopositive neurons in substantia nigra (Experiments 4 and 5)
Type: in vivo, Wistar rats
Method: This experiment was blind with respect to the treatment (with GPE or the vehicle) and with respect to the counting of neurons expressing TH (between sections from animals treated with GPE or vehicle).
The objective of this experiment was to determine the effects of administering GPE on the expression of tyrosine hydroxylase (TH) in the presence or absence of CNS injury. […] Specifically, 9 pairs of adult male Wistar rats (280-320 g) were prepared under 3% halothane/O2 anaesthesia. The oxygen free radical producing neurotoxin 6-hydroxydopamine (6-OHDA) which produces degeneration of dopamine neurones (8 μg/2 μl) was injected into the median forebrain bundle using a 30 gauge needle (coordinates: anterior-posterior +4.7 mm, right +1.6 mm, vertical -8.5 mm). A guide cannula was placed on the dura 7.5 mm anterior from stereotaxic zero and 1.5 mm from the midline on the right. The rats were left to recover at room temperature. […]
The total counts of neurons were compared between the GPE and the vehicle treated group. Data were analysed with paired t-test and presented as mean ±sem.
Experiment 5 was performed using a second set of rats (9 pairs) using the same experimental parameters except that only the immunopositive neurons at 2 levels of the substantia nigra were counted.

## NCC(=O)N1CCC[C@H]1C(=O)N[C@@H](CCC(=O)O)C(=O)O [GPE, gly-pro-glu]
Experiments 4 and 5
  protection of dopaminergic neurons against 6-OHDA (TH expression in SNc): provided protection
Lesioned (right) side, 3 μg GPE 2 hours after 6-OHDA, 14 days, Experiment 4
  number of TH immunopositive dopamine neurons: increased
